The source of these data is ChEMBL document CHEMBL1177687, “Synthesis and CYP24A1 inhibitory activity of N-(2-(1H-imidazol-1-yl)-2-phenylethyl)arylamides” (Bioorg Med Chem, 2010).

The structures appear in SMILES notation.

For one test, the target named is T1, 1,25-dihydroxyvitamin D(3) 24-hydroxylase, mitochondrial (Homo sapiens, UniProt Q07973).
T1 sequence (Q07973 whole entry): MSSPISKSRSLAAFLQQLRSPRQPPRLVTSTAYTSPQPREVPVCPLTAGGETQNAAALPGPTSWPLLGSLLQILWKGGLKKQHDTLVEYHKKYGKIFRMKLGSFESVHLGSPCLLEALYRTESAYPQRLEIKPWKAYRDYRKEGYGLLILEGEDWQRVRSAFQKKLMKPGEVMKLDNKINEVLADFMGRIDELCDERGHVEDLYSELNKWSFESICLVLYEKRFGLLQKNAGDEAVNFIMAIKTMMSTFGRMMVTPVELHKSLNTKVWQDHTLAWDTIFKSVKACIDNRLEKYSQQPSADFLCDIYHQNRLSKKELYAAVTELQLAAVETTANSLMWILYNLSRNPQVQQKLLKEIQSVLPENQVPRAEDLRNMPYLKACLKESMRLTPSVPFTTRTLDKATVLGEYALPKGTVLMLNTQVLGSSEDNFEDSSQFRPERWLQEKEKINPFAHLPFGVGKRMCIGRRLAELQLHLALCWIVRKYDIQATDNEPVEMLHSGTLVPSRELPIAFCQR
Nature of the test: Inhibition of CYP24A1. It counts as ADME.
Regarding `O=C(NC[C@@H](c1ccccc1)n1ccnc1)c1ccc(-c2ccc(Cl)cc2)cc1`, the midpoint of inhibition, the IC50, lay at 0.0151 µM.

Another test deals with T1, 1,25-dihydroxyvitamin D(3) 24-hydroxylase, mitochondrial. Nature of the test: Inhibition of human recombinant CYP24A1 expressed in chinese hamster V79 cells using [3H-1-beta]calcitriol after 60 mins by scintillation counting. The format is ADME, cell-based.
In the case of `O=C(NCC(c1ccc(F)cc1)n1ccnc1)c1cc2ccccc2o1` (centres undefined), the IC50 (usually the midpoint of a concentration-inhibition curve) was 2.8 µM.

In the case of `O=C(NCC(c1ccc(Cl)cc1)n1ccnc1)c1cc2ccccc2o1` (centres undefined), the IC50 came to 10.6 µM.

Consider `O=C(NCC(c1ccccc1)n1ccnc1)c1ccc(Cc2ccccc2)cc1` (centres undefined), for which the half-inhibitory concentration (IC50) was 72 µM. As to `O=C(NCC(c1ccccc1)n1ccnc1)c1cc2ccccc2o1` (centres undefined), the IC50 was 4 µM. For the molecule `O=C(NCC(c1ccccc1)n1ccnc1)c1ccc(Br)cc1` (centres undefined), the IC50 came to 23 µM. For `O=C(NCC(c1ccccc1)n1ccnc1)c1ccc(/C=C/c2ccccc2)cc1` (centres undefined), the IC50 was 0.3 µM. `O=C(NCC(c1ccccc1)n1ccnc1)c1cc2cc([N+](=O)[O-])ccc2o1` (centres undefined): the IC50 is 6.4 µM.

Regarding `COc1ccc2cc(C(=O)NCC(c3ccccc3)n3ccnc3)oc2c1` (centres undefined), the IC50 was determined as 36.9 µM.
